# According to patent US7687453B2, “Method for administering insulin to the buccal region” (Generex Pharmaceuticals Incorporated, priority 1998, dated 2010):
# How the values were obtained:
# Assay type in all cases: in vivo, human
# blood glucose [1] = assay: Blood glucose after insulin injection vs oral insulin drops, fasted healthy non-diabetic volunteers (Example 1); set-up: unit not given here; details: 10 units sub-cutaneous injection, avg of 5 fasted healthy volunteers
# Experimental: In one set of tests, five healthy non-diabetic human volunteers were tested with insulin, by injection. In another set of tests the volunteers were tested with insulin, taken orally. The volunteers fasted from midnight prior to the test, with no food being taken during the 4 hour study.
# On the first day, the volunteers received 10 units of insulin by injection (regular fast acting insulin, available from Eli Lilly). On the second day, the volunteers received 100 units (1 mL volume per drop, approximately 20 drops) of the above-prepared oral insulin (10 times the injection dose). In both tests, blood glucose levels were monitored every 15 minutes by Bayer's Glucometer Elite.
# blood glucose [2] = assay: Blood glucose, oral mixed micellar insulin vs injection, fasted Type II diabetic volunteers (Example 8); details: injection 10 units, avg of 10 fasted Type II diabetics
# Experimental: In one set of tests, ten Type II diabetic human volunteers who took insulin, by injection three times a day, were studied. In another set of tests the volunteers were tested with insulin, faken orally. The volunteers fasted from midnight prior to the test, with no food being taken during the 4 hour study. On the first day, the volunteers received 10 units insulin by injection (regular fast acting insulin, available from Eli Lilly). On the second day, the volunteers received 30 units (1 mL volume per drop, approximately 20 drops) of the above-prepared oral insulin (3 times the injection dose). In both tests, blood glucose levels were monitored every 15 minutes by Bayer's Glucometer Elite.
# meal glucose [3] = assay: Meal glucose, oral mixed micellar insulin vs injection, healthy non-diabetic volunteers (Example 11); details: injection 10 units, ten healthy volunteers, meal 30 min after dosing
# Experimental: The mixed micellar formulation of Example 9 was tested in healthy volunteers under controlled conditions to determine the oral insulin effect on meal glucose when compared to injected insulin.
# In one set of tests, ten healthy non-diabetic human volunteers were tested with insulin, by injection. In another set of tests the volunteers were tested with insulin, taken orally. The volunteers fasted from midnight prior to the tests, with food being taken 30 minutes after dosing. The meals were standard Sastacal 240 mL liquid diet approved by the Diabetic Society, containing 400 calories.
# On the first day, the volunteers received 10 units insulin by injection (regular fast acting insulin, available from Eli Lilly). On the second day, the volunteers received 30 units of the above-prepared oral insulin (3 times the injection dose). In both tests, blood glucose levels were monitored every 15 minutes by Bayer's Glucometer Elite.
# meal glucose [4] = assay: Meal glucose, chewable gum insulin vs injection, Type II diabetic volunteers (Example 13); details: injection 10 units, avg of five Type II diabetics, meal 30 min after dosing
# Experimental: The mixed micellar formulation in chewable stick form was tested in diabetic volunteers under controlled conditions to determine the oral insulin effect on meal glucose when compared to injected insulin.
# In one set of tests, five Type II diabetic human volunteers who took insulin, by injection three times a day, were studied. In another set of tests the volunteers were tested with the chewable gum insulin, taken orally. The volunteers fasted from midnight prior to the tests, with food being taken 30 minutes after dosing. The meals were standard Sastacal 240 mL liquid diet approved by the Diabetic Society, containing 400 calories.
# On the first day, the volunteers received 10 units insulin by injection (regular fast acting insulin, available from Eli Lilly). On the second day, the volunteers received 30 units of the above-prepared chewable gum oral insulin (3 times the injection dose). in both tests, blood glucose levels were monitored every 15 minutes by Bayer's Glucometer Elite.
# blood glucose [5] = assay: Blood glucose, oral mixed micellar insulin (bacitracin, evening primrose oil) vs injection, fasted volunteers (Example 14); details: injection 10 units, avg of six fasted volunteers
# Experimental: Six human volunteers were studied. The volunteers fasted from midnight prior to the test, with no food being taken during the 4 hour study. On the first day, the volunteers received 10 units insulin by injection (regular fast acting insulin, available from Eli Lilly). On the second day, the volunteers received 20 units of the above-prepared oral insulin (twice the injection dose). In both tests, blood glucose levels were monitored at intervals by Bayer's Glucometer Elite.
substance,measurement,setting,value
"regular fast acting insulin: regular fast acting insulin, available from Eli Lilly, given by injection (10 units)",Blood glucose level,blood glucose [1]; 0 min,5.8
same,Blood glucose level,blood glucose [1]; 15 min,5.8
same,Blood glucose level,blood glucose [1]; 30 min,5.4
same,Blood glucose level,blood glucose [1]; 60 min,5.0
same,Blood glucose level,blood glucose [1]; 75 min,4.6
same,Blood glucose level,blood glucose [1]; 90 min,4.3
same,Blood glucose level,blood glucose [1]; 120 min,3.8
same,Blood glucose level,blood glucose [1]; 150 min,3.6
same,Blood glucose level,blood glucose [1]; 180 min,3.4
same,Blood glucose level,blood glucose [1]; 210 min,4.2
same,Blood glucose level,blood glucose [1]; 240 min,4.5
same,Blood glucose levels,blood glucose [2]; 0 min,6.8 mmol/L
same,Blood glucose levels,blood glucose [2]; 15 min,6.9 mmol/L
same,Blood glucose levels,blood glucose [2]; 30 min,6.1 mmol/L
same,Blood glucose levels,blood glucose [2]; 45 min,5.8 mmol/L
same,Blood glucose levels,blood glucose [2]; 60 min,5.8 mmol/L
same,Blood glucose levels,blood glucose [2]; 75 min,5.8 mmol/L
same,Blood glucose levels,blood glucose [2]; 90 min,5.4 mmol/L
same,Blood glucose levels,blood glucose [2]; 105 min,5.4 mmol/L
same,Blood glucose levels,blood glucose [2]; 120 min,5.2 mmol/L
same,Blood glucose levels,blood glucose [2]; 135 min,5.1 mmol/L
same,Blood glucose levels,blood glucose [2]; 150 min,4.9 mmol/L
same,Blood glucose levels,blood glucose [2]; 165 min,4.9 mmol/L
same,Blood glucose levels,blood glucose [2]; 180 min,4.8 mmol/L
same,Blood glucose levels,blood glucose [2]; 195 min,4.8 mmol/L
same,Blood glucose levels,blood glucose [2]; 210 min,5.2 mmol/L
same,Blood glucose levels,blood glucose [2]; 225 min,5.2 mmol/L
same,Blood glucose levels,blood glucose [2]; 240 min,5.4 mmol/L
same,Blood glucose levels,meal glucose [3]; 0 min,5.5 mmol/L
same,Blood glucose levels,meal glucose [3]; 15 min,5.6 mmol/L
same,Blood glucose levels,meal glucose [3]; 30 min,5.4 mmol/L
same,Blood glucose levels,meal glucose [3]; 45 min,5.4 mmol/L
same,Blood glucose levels,meal glucose [3]; 60 min,5.6 mmol/L
same,Blood glucose levels,meal glucose [3]; 75 min,6.6 mmol/L
same,Blood glucose levels,meal glucose [3]; 90 min,7.0 mmol/L
same,Blood glucose levels,meal glucose [3]; 105 min,5.9 mmol/L
same,Blood glucose levels,meal glucose [3]; 120 min,5.6 mmol/L
same,Blood glucose levels,meal glucose [3]; 135 min,5.1 mmol/L
same,Blood glucose levels,meal glucose [3]; 150 min,4.8 mmol/L
same,Blood glucose levels,meal glucose [3]; 165 min,4.6 mmol/L
same,Blood glucose levels,meal glucose [3]; 180 min,4.3 mmol/L
same,Blood glucose levels,meal glucose [4]; 0 min,8.8 mmol/L
same,Blood glucose levels,meal glucose [4]; 15 min,8.2 mmol/L
same,Blood glucose levels,meal glucose [4]; 30 min,8.0 mmol/L
same,Blood glucose levels,meal glucose [4]; 45 min,8.4 mmol/L
same,Blood glucose levels,meal glucose [4]; 60 min,9.2 mmol/L
same,Blood glucose levels,meal glucose [4]; 75 min,10.3 mmol/L
same,Blood glucose levels,meal glucose [4]; 90 min,11.8 mmol/L
same,Blood glucose levels,meal glucose [4]; 105 min,11.6 mmol/L
same,Blood glucose levels,meal glucose [4]; 120 min,11.0 mmol/L
same,Blood glucose levels,meal glucose [4]; 135 min,10.2 mmol/L
same,Blood glucose levels,meal glucose [4]; 150 min,9.6 mmol/L
same,Blood glucose levels,meal glucose [4]; 165 min,9.5 mmol/L
same,Blood glucose levels,meal glucose [4]; 180 min,9.1 mmol/L
same,Blood glucose levels,meal glucose [4]; 195 min,8.7 mmol/L
same,Blood glucose levels,meal glucose [4]; 210 min,8.2 mmol/L
same,Blood glucose levels,meal glucose [4]; 225 min,8.0 mmol/L
same,Blood glucose levels,meal glucose [4]; 240 min,7.5 mmol/L
same,Blood glucose levels,blood glucose [5]; 0 min,7.9 mmol/L
same,Blood glucose levels,blood glucose [5]; 15 min,7.9 mmol/L
same,Blood glucose levels,blood glucose [5]; 30 min,8.2 mmol/L
same,Blood glucose levels,blood glucose [5]; 45 min,8.3 mmol/L
same,Blood glucose levels,blood glucose [5]; 60 min,7.6 mmol/L
same,Blood glucose levels,blood glucose [5]; 90 min,6.2 mmol/L
same,Blood glucose levels,blood glucose [5]; 120 min,5.2 mmol/L
same,Blood glucose levels,blood glucose [5]; 150 min,4.6 mmol/L
same,Blood glucose levels,blood glucose [5]; 180 min,3.9 mmol/L
same,Blood glucose levels,blood glucose [5]; 210 min,4.4 mmol/L
same,Blood glucose levels,blood glucose [5]; 240 min,5.2 mmol/L
